{"source": "patent US12599685B2", "about": "“Tumor stroma imaging agent and preparation method thereof” (SHANGHAI UNIVERSITY OF MEDICINE & HEALTH SCIENCES, priority 2020, dated 2026)", "key": {"HT-1080-FAP cell line": {"test_system": "HT-1080-FAP cell line", "assay": "Cell binding experiment of (S)-[18F]-AlF-NOTA-Bn-FAPI-4", "type": "cell-based, human", "conditions": "1 h incubation", "procedure": "(S)—[^18F]—AlF-NOTA-Bn-FAPI-4 was adopted as an experimental group, AlF-FAPI-75+(S)—[^18F]—AlF-NOTA-Bn-FAPI-4 was adopted as a blockage group, and free ^18F^− was adopted as a control group.\nA human fibrosarcoma cell HT-1080-FAP (HT-1080-FAP cell line) transfected by an FAP gene was activated to obtain an HT-1080-FAP cell suspension.\n(§1) The experimental group: 2 mL of the HT-1080-FAP cell suspension was taken and washed three times with frozen PBS. A complete medium including the imaging agent (S)—[^18F]—AlF-NOTA-Bn-FAPI-4 (2.96 MBq, 80 μCi) was added, and the resulting mixture was incubated for 1 h. The cells were washed three times with frozen PBS, and 0.5 mL of NaOH-sodium dodecyl sulfate (SDS) (1M NaOH, 1% SDS) was added for lysis. The resulting cell lysate was finally collected, placed in a marked γ-counting tube, and subjected to γ-counting.\nas §1, with “blockage” for “experimental”, “PBS. A complete medium including the blocker AlF-FAPI-75 was added, and the resulting mixture was incubated for 0.5 h.” for “PBS.”, “NaOH-SDS (1 M” for “NaOH-sodium dodecyl sulfate (SDS) (1M”\nas §1, with “control” for “experimental”, “free ^18F^−” for “imaging agent (S)—[^18F]—AlF-NOTA-Bn-FAPI-4”, “NaOH-SDS (1 M” for “NaOH-sodium dodecyl sulfate (SDS) (1M”, “γ-counting. The final volumes of the groups were the same.” for “γ-counting.”"}, "tumor-bearing mice": {"test_system": "tumor-bearing mice", "assay": "Biodistribution in tumor-bearing mice", "type": "in vivo", "procedure": "Six mice were divided into an experimental group and a blockage group with 3 mice in each group. Mice in the experimental group each were injected with (S)—[^18F]—AlF-NOTA-Bn-FAPI-4 (3.7 MBq, 100 μCi) through a tail vein within 1 min, and 60 min later, the mice each were sacrificed by cutting a carotid artery for bloodletting. Mice in the blockage group each were injected with 100 μg of the blocker AlF-FAPI-75 (1,000 μg/mL) through a tail vein and injected with (S)—[^18F]—AlF-NOTA-Bn-FAPI-4 (3.7 MBq, 100 μCi) through a tail vein 30 min later, and 60 min later, the mice each were sacrificed by cutting a carotid artery for bloodletting. The heart, liver, lung, kidney, spleen, brain, and the like were collected, weighed, and tested for radioactivity. Finally, an (S)—[^18F]—AlF-NOTA-Bn-FAPI-4 radioactivity uptake rate (a percentage of uptake radioactivity per gram of tissue in the injected radioactivity, ID/g) in each of blood and various organs and a radioactivity ratio of a target organ to a non-target organ (T/NT) were calculated at different time points."}, "[1]": {"conditions": "blockage group: 100 μg AlF-FAPI-75 i.v. 30 min before tracer, 1 h after injection"}, "[2]": {"conditions": "experimental group, 1 h after tail vein injection, 3.7 MBq"}, "[3]": {"conditions": "tumor-bearing mice, 1 h after injection"}}, "data": [{"substance": "(S)—[^18F]—AlF-NOTA-Bn-FAPI-4", "values": [{"measurement": "absorption of tumor cells, experimental group relative to blockage group", "setting": "HT-1080-FAP cell line; t=6.713, P<0.05", "value": 3, "unit": "times"}, {"measurement": "absorption of tumor cells, experimental group relative to control group (free 18F-)", "setting": "HT-1080-FAP cell line; t=8.934, P<0.01", "value": 33.31, "unit": "times"}, {"measurement": "Radioactivity count value", "setting": "HT-1080-FAP cell line; HT-1080-FAP cells, 2.96 MBq (80 μCi), no blocker", "value": "5999.98 ± 864.12 γ count value/min"}, {"measurement": "Radioactivity count value", "setting": "HT-1080-FAP cell line; blockage group: blocker AlF-FAPI-75 incubated 0.5 h, then imaging agent 2.96 MBq", "value": "2000.01 ± 113.34 γ count value/min"}, {"measurement": "Distribution, Blood", "setting": "tumor-bearing mice; [1]", "value": "0.13±0.10", "unit": "% ID/g"}, {"measurement": "Distribution, Bone", "setting": "tumor-bearing mice; [1]", "value": "0.06 ± 0.01", "unit": "% ID/g"}, {"measurement": "Distribution, Brain", "setting": "tumor-bearing mice; [1]", "value": "0.03 ± 0.01", "unit": "% ID/g"}, {"measurement": "Distribution, Heart", "setting": "tumor-bearing mice; [1]", "value": "0.08 ± 0.05", "unit": "% ID/g"}, {"measurement": "Distribution, Intestine", "setting": "tumor-bearing mice; [1]", "value": "0.16 ± 0.02", "unit": "% ID/g"}, {"measurement": "Distribution, Kidney", "setting": "tumor-bearing mice; [1]", "value": "0.84±0.21", "unit": "% ID/g"}, {"measurement": "Distribution, Liver", "setting": "tumor-bearing mice; [1]", "value": "0.08 ± 0.04", "unit": "% ID/g"}, {"measurement": "Distribution, Lung", "setting": "tumor-bearing mice; [1]", "value": "0.28 ± 0.19", "unit": "% ID/g"}, {"measurement": "Distribution, Muscle", "setting": "tumor-bearing mice; [1]", "value": "0.09 ± 0.03", "unit": "% ID/g"}, {"measurement": "Distribution, Spleen", "setting": "tumor-bearing mice; [1]", "value": "0.16 ± 0.14", "unit": "% ID/g"}, {"measurement": "Distribution, Tumor", "setting": "tumor-bearing mice; [1]", "value": "0.22±0.05", "unit": "% ID/g"}, {"measurement": "Distribution, Blood", "setting": "tumor-bearing mice; [2]", "value": "0.10±0.04", "unit": "% ID/g"}, {"measurement": "Distribution, Bone", "setting": "tumor-bearing mice; [2]", "value": "0.15 ± 0.03", "unit": "% ID/g"}, {"measurement": "Distribution, Brain", "setting": "tumor-bearing mice; [2]", "value": "0.02 ± 0.01", "unit": "% ID/g"}, {"measurement": "Distribution, Heart", "setting": "tumor-bearing mice; [2]", "value": "0.09 + 0.09 % ID/g"}, {"measurement": "Distribution, Intestine", "setting": "tumor-bearing mice; [2]", "value": "0.19 ± 0.06", "unit": "% ID/g"}, {"measurement": "Distribution, Kidney", "setting": "tumor-bearing mice; [2]", "value": "0.94±0.20", "unit": "% ID/g"}, {"measurement": "Distribution, Liver", "setting": "tumor-bearing mice; [2]", "value": "0.07 ± 0.05", "unit": "% ID/g"}, {"measurement": "Distribution, Lung", "setting": "tumor-bearing mice; [2]", "value": "0.16 ± 0.08", "unit": "% ID/g"}, {"measurement": "Distribution, Muscle", "setting": "tumor-bearing mice; [2]", "value": "0.16 ± 0.05", "unit": "% ID/g"}, {"measurement": "Distribution, Spleen", "setting": "tumor-bearing mice; [2]", "value": "0.10 ± 0.01", "unit": "% ID/g"}, {"measurement": "Distribution, Tumor", "setting": "tumor-bearing mice; [2]", "value": "1.12±0.06", "unit": "% ID/g"}, {"measurement": "clearance in the blood", "setting": "tumor-bearing mice; [3]", "value": "quickly cleared in the blood"}, {"measurement": "route of excretion", "setting": "tumor-bearing mice; [3]", "value": "mainly excreted by the kidney"}]}]}
